Columns and labels:
[1] = Pharmacokinetics study of KDG-0271 in male CD1 mice (Example 4); format: in vivo; conditions: for F: bioavailability vs 1 mg/kg IV; for AUC(0-inf) / AUC(0-t) / Cmax / Tmax / half-life / concentration at 0.25 h / concentration at 0.5 h / concentration at 1 h / concentration at 2 h / concentration at 4 h / concentration at 8 h / MRT inf: mouse, plasma; for MRT inf: read-out: MRTInf_obs
Protocol: (§1) A standard PK study of KDG-0271 was performed in male CD1 mice dosed with a single intravenous, oral or intraperitoneal dose of KDG-0271. The parameters of the PK study are described in Table 26. Dosing solutions were freshly made prior to use, and were in the form of a suspension. […] For IV and IP, after collection, plasma samples from the same time point were pooled, and the pooled samples were analyzed by LC/MS/MS.
Sample preparation and analysis were conducted in accordance with the method described in Example 3.
(§2) BLOQ=Below quantifiable limit of 1 ng/mL. PK parameters were estimated by non-compartmental model using WinNonlin 6.1. The PO bioavailability (F %) was calculated as following:
(§3) AUClast-PO/AUCINF-PO>80%: F=(AUCINF-PO*DoseIV)/(mean AUCINF-IV*DosePO) AUClast-PO/AUCINF-PO≤80% or AUCINF was not available: F=(AUClast-PO*DoseIV)/(mean AUClast-IV*DosePO).
(§4) The IP bioavailability (F %) was calculated as following:
(§5) AUClast-IP/AUCINF-IP>80%: F=(AUCINF-IP*DoseIV)/(mean AUCINF-IV*DoseIP) AUClast-IP/AUCINF-IP≤80% or AUCINF was not available: F=(AUClast-IP*DoseIV)/(mean AUClast-IV*DoseIP).

[2] = Pharmacokinetics study of KDG-0271 in male CD1 mice (Example 3); format: in vivo; conditions: for F: bioavailability vs 1 mg/kg IV; for MRT inf: read-out: MRTInf_obs
Protocol: as §1, with “single” for “single intravenous,”, “18.” for “26.”
The desired serial concentrations of working solutions were achieved by diluting stock solution of analyte with 50% acetonitrile in water solution. 5 μL of working solutions (1, 2, 4, 20, 100, 200, 1000, 2000 ng/mL) were added to 10 μL of blank CD1 mouse plasma to achieve calibration standards of […] (0.5, 1, 2, 10, 50, 100, 500, 1000 ng/mL) in a total volume of 15 μL. Four quality control samples at 1 ng/mL, 2 ng/mL, 50 ng/mL and 800 ng/mL for plasma were prepared independently of those used for the calibration curves. These QC samples were prepared on the day of analysis in the same way as calibration standards.
15 μL standards, 15 μL QC samples and 15 μL unknown samples (10 μL plasma with 5 μL blank solution) were added to 200 μL of acetonitrile containing IS mixture for precipitating protein. Then the samples were vortexed for 30 seconds. After centrifugation at 4 degrees Celsius, 4000 rpm for 15 minutes, the supernatant was diluted three times with water. 10 μL of diluted supernatant was injected into the LC/MS/MS system for quantitative analysis.
as §2, §3, §4, §5

[3] = 30 mg/kg IP, read-out: Concentration IP_Mean
[4] = 50 mg/kg PO, read-out: Concentration PO_Mean
[5] = male, mouse, plasma, CD1 mice, 1 mg/kg IV
[6] = male, mouse, CD1 mice, plasma, 1 mg/kg IV, read-out: Concentration IV_Mean
[7] = mouse, plasma, male CD1 mice, 200 mg/kg IP
[8] = mouse, plasma, male CD1 mice, 200 mg/kg PO
[9] = mouse, male CD1 mice, plasma, 200 mg/kg IP, read-out: Concentration IP_Mean
[10] = mouse, male CD1 mice, plasma, 200 mg/kg PO, read-out: Concentration PO_Mean

AUC_%Extrap_obs ([1]; 30 mg/kg IP): 2.65%
AUClast/D ([1]; 30 mg/kg IP): 174 kg·ng·h/mL/mg
F ([1]; 30 mg/kg IP): 179%
AUC_%Extrap_obs ([1]; 50 mg/kg PO): 0.172%
AUClast/D ([1]; 50 mg/kg PO): 38.1 kg·ng·h/mL/mg
F ([1]; 50 mg/kg PO): 38.1%
AUC(0-inf) ([1]; 30 mg/kg IP): 5360 ng·h/mL
AUC(0-t) ([1]; 30 mg/kg IP): 5220 ng·h/mL
Cmax ([1]; 30 mg/kg IP): 3170 ng/mL
Tmax ([1]; 30 mg/kg IP): 0.25 h
half-life ([1]; 30 mg/kg IP): 1.6 h
concentration at 0.25 h [1, 3]: 3170 ng/mL
concentration at 0.5 h [1, 3]: 2420 ng/mL
concentration at 1 h [1, 3]: 1580 ng/mL
concentration at 2 h [1, 3]: 841 ng/mL
concentration at 4 h [1, 3]: 317 ng/mL
concentration at 8 h [1, 3]: 61.4 ng/mL
MRT inf ([1]; 30 mg/kg IP): 1.98 h
AUC(0-inf) ([1]; 50 mg/kg PO): 1910 ng·h/mL
AUC(0-t) ([1]; 50 mg/kg PO): 1900 ng·h/mL
Cmax ([1]; 50 mg/kg PO): 872 ng/mL
Tmax ([1]; 50 mg/kg PO): 0.5 h
half-life ([1]; 50 mg/kg PO): 0.851 h
concentration at 0.25 h [1, 4]: 750 ng/mL
concentration at 0.5 h [1, 4]: 872 ng/mL
concentration at 1 h [1, 4]: 857 ng/mL
concentration at 2 h [1, 4]: 350 ng/mL
concentration at 4 h [1, 4]: 72 ng/mL
concentration at 8 h [1, 4]: 2.67 ng/mL
MRT inf ([1]; 50 mg/kg PO): 1.49 h
AUC_%Extrap_obs ([2]; CD1 mice, 1 mg/kg IV): 0.718%
AUClast/D ([2]; CD1 mice, 1 mg/kg IV): 99.3 kg·ng·h/mL/mg
Cl_obs ([2]; CD1 mice, 1 mg/kg IV): 167 mL/min/kg
Vss_obs ([2]; CD1 mice, 1 mg/kg IV): 3.32 L/kg
Concentration IV_Mean ([2]; CD1 mice, plasma, 1 mg/kg IV, 8 h): BLOQ
AUC_%Extrap_obs ([2]; male CD1 mice, 200 mg/kg IP): 43.6%
AUClast/D ([2]; male CD1 mice, 200 mg/kg IP): 40.7 kg·ng·h/mL/mg
F ([2]; male CD1 mice, 200 mg/kg IP): 41.0%
AUC_%Extrap_obs ([2]; male CD1 mice, 200 mg/kg PO): 1.28%
AUClast/D ([2]; male CD1 mice, 200 mg/kg PO): 19.2 kg·ng·h/mL/mg
F ([2]; male CD1 mice, 200 mg/kg PO): 19.4%
AUC(0-inf) [2, 5]: 100 ng·h/mL
AUC(0-t) [2, 5]: 99.3 ng·h/mL
C0 [2, 5]: 637 ng/mL
half-life [2, 5]: 0.787 h
MRT inf [2, 5]: 0.332 h
concentration at 0.083 h ([2]; male, mouse, CD1 mice, plasma, 1 mg/kg IV, 0.083 h, read-out: Concentration IV_Mean): 301 ng/mL
concentration at 0.25 h [2, 6]: 66.6 ng/mL
concentration at 0.5 h [2, 6]: 24.8 ng/mL
concentration at 1 h [2, 6]: 9.44 ng/mL
concentration at 2 h [2, 6]: 2.87 ng/mL
concentration at 4 h [2, 6]: 0.632 ng/mL
AUC(0-inf) [2, 7]: 14500 ng·h/mL
AUC(0-t) [2, 7]: 8150 ng·h/mL
Cmax [2, 7]: 2160 ng/mL
Tmax [2, 7]: 0.25 h
half-life [2, 7]: 6.85 h
MRT inf [2, 7]: 9.67 h
AUC(0-inf) [2, 8]: 3880 ng·h/mL
AUC(0-t) [2, 8]: 3830 ng·h/mL
Cmax [2, 8]: 1070 ng/mL
Tmax [2, 8]: 1 h
half-life [2, 8]: 1.2 h
MRT inf [2, 8]: 2.37 h
concentration at 0.25 h [2, 9]: 2160 ng/mL
concentration at 0.5 h [2, 9]: 1530 ng/mL
concentration at 1 h [2, 9]: 1390 ng/mL
concentration at 2 h [2, 9]: 1160 ng/mL
concentration at 4 h [2, 9]: 992 ng/mL
concentration at 8 h ([2]; mouse, male CD1 mice, plasma, 200 mg/kg IP, 8 h, read-out: Concentration IP_Mean): 638 ng/mL
concentration at 0.25 h [2, 10]: 701 ng/mL
concentration at 0.5 h [2, 10]: 958 ng/mL
concentration at 1 h [2, 10]: 1070 ng/mL
concentration at 2 h [2, 10]: 836 ng/mL
concentration at 4 h [2, 10]: 395 ng/mL
concentration at 8 h ([2]; mouse, male CD1 mice, plasma, 200 mg/kg PO, 8 h, read-out: Concentration PO_Mean): 28.6 ng/mL
Structure (SMILES): Cc1n[nH]c2c1C(c1cc(C#CC3CN(C(=O)OC(C)(C)C)C3)cc(CO)c1)(C(C)C)C(C#N)=C(N)O2 (stereo not drawn) [KDG-0271, tert-butyl 3-[2-(3-[6-amino-5-cyano-4-isopropyl-3-methyl-1H-pyrano[2,3-c]pyrazol-4-yl]-5-(hydroxymethyl)phenyl)ethynyl]azetidine-1-carboxylate]
clinical symptoms ([1]; single dose 1 mg/kg IV, 50 mg/kg PO or 30 mg/kg IP, entire experiment): No abnormal clinical symptoms were observed
clinical symptoms ([2]; male CD1 mice, single dose 200 mg/kg PO or 200 mg/kg IP, entire experiment): No abnormal clinical symptoms were observed

Reference: patent US20230382920A1, “SHMT Inhibitors” (The Trustees of Princeton University, priority 2020, published 2023)
